Measured values: ChEMBL document CHEMBL1909046, “DrugMatrix in vitro pharmacology data”

Key:
[1] = target: 5-hydroxytryptamine receptor 4 (Cavia porcellus, UniProt O70528); format: cell membranes, Dunkin-Hartley, Striatum, Membrane; note: in other assays of this panel Not Active means under 50% inhibition at 10 µM
[2] = target: T1, Adenosine receptor A3 (Homo sapiens, UniProt P0DMS8); format: cell membranes, CHO-K1, Membrane; details: cho-k1;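 note: radioligand binding assay with AB-MECA serving as the labeled ligand; in other assays of this panel Not Active means under 50% inhibition at 10 µM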
T1 sequence (P0DMS8 whole entry): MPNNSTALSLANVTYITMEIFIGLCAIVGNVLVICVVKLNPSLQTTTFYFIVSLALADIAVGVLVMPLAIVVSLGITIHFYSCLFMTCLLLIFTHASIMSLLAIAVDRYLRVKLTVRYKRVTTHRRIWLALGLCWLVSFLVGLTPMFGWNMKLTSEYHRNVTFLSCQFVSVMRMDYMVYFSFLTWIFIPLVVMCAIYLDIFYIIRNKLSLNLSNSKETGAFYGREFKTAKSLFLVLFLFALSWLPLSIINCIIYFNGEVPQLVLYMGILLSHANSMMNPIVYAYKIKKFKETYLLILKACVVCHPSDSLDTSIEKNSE

[3] = target: T2, Neutrophil elastase (Homo sapiens, UniProt P08246); format: tissue-based;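 note: inhibition of neutrophil elastase enzyme activity, measured with a p-nitroanilide-linked peptide substrate; in other assays of this panel Not Active means under 50% inhibition at 10 µM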
T2 sequence (P08246 whole entry): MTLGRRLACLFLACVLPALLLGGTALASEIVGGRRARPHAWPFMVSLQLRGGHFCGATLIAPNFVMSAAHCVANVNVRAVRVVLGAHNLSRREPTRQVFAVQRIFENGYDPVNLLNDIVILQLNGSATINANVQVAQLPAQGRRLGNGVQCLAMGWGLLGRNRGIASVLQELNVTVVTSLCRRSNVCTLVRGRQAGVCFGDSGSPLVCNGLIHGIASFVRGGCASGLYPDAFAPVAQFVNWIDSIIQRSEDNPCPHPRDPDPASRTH

[4] = target: C-C chemokine receptor type 5 (Homo sapiens, UniProt P51681); format: cell membranes, Membrane; details: hek293; note: in other assays of this panel Not Active means under 50% inhibition at 10 µM
[5] = target: Prostaglandin G/H synthase 1 (Homo sapiens, UniProt P23219); experiment: biochemical; format: tissue-based, Platelet; details: platelet
[6] = DRUGMATRIX: Phosphodiesterase PDE3 enzyme inhibition (substrate: [3H]cAMP + cAMP); format: tissue-based, Homo sapiens; details: platelet; Not Active = under 50% inhibition at 10 µM
[7] = target: T3, Leukotriene C4 synthase (Cavia porcellus, UniProt A6XA80); format: tissue-based, Lung
T3 sequence (A6XA80 whole entry): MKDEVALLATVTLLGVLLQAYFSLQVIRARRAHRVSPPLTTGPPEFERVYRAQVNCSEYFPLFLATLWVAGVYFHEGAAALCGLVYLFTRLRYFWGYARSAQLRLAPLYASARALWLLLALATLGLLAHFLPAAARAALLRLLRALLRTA

[8] = target: Cytochrome P450 2C9 (Homo sapiens, UniProt P11712); details: bti-tn-5b1-4; note: in other assays of this panel Not Active means under 50% inhibition at 10 µM
Cytochrome P450 2C9, sequence (P11712 whole entry): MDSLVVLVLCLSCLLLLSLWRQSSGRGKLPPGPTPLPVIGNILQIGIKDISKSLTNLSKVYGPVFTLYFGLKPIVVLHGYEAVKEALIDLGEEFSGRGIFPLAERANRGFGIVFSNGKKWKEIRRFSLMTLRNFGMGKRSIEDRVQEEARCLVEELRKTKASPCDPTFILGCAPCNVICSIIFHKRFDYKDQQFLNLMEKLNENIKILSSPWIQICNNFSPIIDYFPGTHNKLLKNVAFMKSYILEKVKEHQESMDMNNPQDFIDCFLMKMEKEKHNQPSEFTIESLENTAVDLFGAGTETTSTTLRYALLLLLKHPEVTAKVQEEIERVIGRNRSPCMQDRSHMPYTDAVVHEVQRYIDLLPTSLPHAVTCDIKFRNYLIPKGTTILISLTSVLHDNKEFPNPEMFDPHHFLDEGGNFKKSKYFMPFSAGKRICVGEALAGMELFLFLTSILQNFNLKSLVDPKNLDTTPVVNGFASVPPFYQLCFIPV

5-hydroxytryptamine receptor 4, sequence (O70528 whole entry): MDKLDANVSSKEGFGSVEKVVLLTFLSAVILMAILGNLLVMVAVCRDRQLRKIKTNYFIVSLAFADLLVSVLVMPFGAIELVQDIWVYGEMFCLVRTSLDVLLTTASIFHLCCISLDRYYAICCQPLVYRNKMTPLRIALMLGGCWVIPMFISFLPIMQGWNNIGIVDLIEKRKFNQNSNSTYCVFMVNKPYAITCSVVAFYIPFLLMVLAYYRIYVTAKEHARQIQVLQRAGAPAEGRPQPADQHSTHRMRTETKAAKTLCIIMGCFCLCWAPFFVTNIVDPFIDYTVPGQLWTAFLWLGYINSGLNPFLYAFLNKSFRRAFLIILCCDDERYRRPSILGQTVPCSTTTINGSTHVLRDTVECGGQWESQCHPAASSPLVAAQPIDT
Prostaglandin G/H synthase 1, sequence (P23219 whole entry): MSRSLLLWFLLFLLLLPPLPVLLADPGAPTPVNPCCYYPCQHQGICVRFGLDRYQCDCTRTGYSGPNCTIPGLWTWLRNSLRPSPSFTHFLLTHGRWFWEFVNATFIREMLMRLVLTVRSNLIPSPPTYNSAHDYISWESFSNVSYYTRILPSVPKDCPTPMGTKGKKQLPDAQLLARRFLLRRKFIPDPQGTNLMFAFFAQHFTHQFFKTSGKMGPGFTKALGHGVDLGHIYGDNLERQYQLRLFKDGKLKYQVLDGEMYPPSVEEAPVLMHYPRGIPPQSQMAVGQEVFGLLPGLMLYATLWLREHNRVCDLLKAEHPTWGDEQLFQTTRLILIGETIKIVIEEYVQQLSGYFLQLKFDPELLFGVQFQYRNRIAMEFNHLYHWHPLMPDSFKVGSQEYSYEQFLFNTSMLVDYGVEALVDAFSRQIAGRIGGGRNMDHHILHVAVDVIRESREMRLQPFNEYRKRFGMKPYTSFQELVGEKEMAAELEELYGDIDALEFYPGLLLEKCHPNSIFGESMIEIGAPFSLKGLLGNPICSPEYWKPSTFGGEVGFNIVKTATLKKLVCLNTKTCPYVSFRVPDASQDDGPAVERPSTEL
C-C chemokine receptor type 5, sequence (P51681 whole entry): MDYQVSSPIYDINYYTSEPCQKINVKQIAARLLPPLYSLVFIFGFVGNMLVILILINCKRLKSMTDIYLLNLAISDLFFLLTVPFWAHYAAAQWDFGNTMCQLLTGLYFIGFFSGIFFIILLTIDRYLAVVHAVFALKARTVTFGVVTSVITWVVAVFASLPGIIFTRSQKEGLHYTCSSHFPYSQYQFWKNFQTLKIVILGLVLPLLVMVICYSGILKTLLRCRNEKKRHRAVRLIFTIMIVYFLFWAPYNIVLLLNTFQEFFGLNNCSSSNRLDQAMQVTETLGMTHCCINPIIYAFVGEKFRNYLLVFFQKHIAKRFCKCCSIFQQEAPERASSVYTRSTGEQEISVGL

Molecule	IC50 [1]	IC50 [2]	IC50 [3]	IC50 [4]	IC50 [5]	IC50 [6]	Ki [6]	IC50 [7]	IC50 [8]	Ki [8]	Ki [1]	Ki ([2]; read-out: Ki)	Ki [3]	Ki [4]	Ki [5]	Ki [7]
Nc1ccc(S(=O)(=O)Nc2ncccn2)cc1 [SULFADIAZINE]	Not Active	Not Active	Not Active	Not Active	Not Active	Not Active	Not Active	Not Active	Not Active	Not Active						
Nc1ccc(S(=O)(=O)Nc2nccs2)cc1 [SULFATHIAZOLE]	Not Active	Not Active	Not Active	Not Active	Not Active	Not Active	Not Active	Not Active	Not Active	Not Active						
O=C(O)C(Cl)(Cl)Cl [TRICHLOROACETIC ACID]	Not Active	Not Active	Not Active	Not Active	Not Active	Not Active	Not Active	Not Active	Not Active	Not Active						
C=C(C)[C@H]1Cc2c(ccc3c2O[C@@H]2COc4cc(OC)c(OC)cc4[C@@H]2C3=O)O1 [ROTENONE]	Not Active	Not Active	Not Active	Not Active	Not Active	Not Active	Not Active	Not Active	Not Active	Not Active						
C#CCN(C)[C@H](C)Cc1ccccc1 [SELEGILINE]	Not Active	Not Active	Not Active	Not Active	Not Active	Not Active	Not Active	Not Active	Not Active	Not Active						
THIMEROSAL	Not Active		Not Active	Not Active	Not Active	Not Active	Not Active	Not Active	Not Active	Not Active	Not Active	1910 nM	Not Active	Not Active	Not Active	Not Active
CNS(=O)(=O)Cc1ccc2[nH]cc(CCN(C)C)c2c1	Not Active	Not Active	Not Active	Not Active	Not Active	Not Active	Not Active	Not Active	Not Active	Not Active						
C[C@@H]1C[C@H]2[C@@H]3CCC4=CC(=O)C=C[C@]4(C)C3=CC[C@]2(C)[C@H]1C(=O)CN1CCN(c2cc(N3CCCC3)nc(N3CCCC3)n2)CC1 [TIRILAZAD]	Not Active	Not Active	Not Active	Not Active	Not Active	Not Active	Not Active	Not Active	Not Active	Not Active						
NC[C@H]1O[C@H](O[C@H]2[C@H](O)[C@@H](O[C@H]3O[C@H](CO)[C@@H](O)[C@H](N)[C@H]3O)[C@H](N)C[C@@H]2N)[C@H](N)C[C@@H]1O [TOBRAMYCIN]	Not Active	Not Active	Not Active	Not Active	Not Active	Not Active	Not Active	Not Active	Not Active	Not Active						
CN[C@@H]1[C@H](O)[C@H](NC)[C@H]2O[C@@]3(O)C(=O)C[C@@H](C)O[C@H]3O[C@@H]2[C@H]1O [SPECTINOMYCIN]	Not Active	Not Active	Not Active	Not Active	Not Active	Not Active	Not Active	Not Active	Not Active	Not Active						
O=P(O)(O)C(O)(Cc1cccnc1)P(=O)(O)O [RISEDRONIC ACID]	Not Active	Not Active	Not Active	Not Active	Not Active	Not Active	Not Active	Not Active	Not Active	Not Active						
